In patent publication US20250230244A1, “METHODS AND COMPOSITIONS COMPRISING B7-H3 BINDING POLYPETIDES” (BOARD OF REGENTS, THE UNIVERSITY OF TEXAS SYSTEM, priority 2021, published 2025):

Experiments:
[1] = system: AML cell lines (OCI-AML3, MV4-11, and U937); assay: NK cell ADCC, annexin V binding, Incucyte, AML cell lines; format: cell-based, human
Experimental: For live-cell apoptosis analysis, the inventors stained OCI-AML3, MV4-11, U937, and primary cells with CytoLight Red (#4482; Essen BioScience). […] Time-lapse fluorescence imaging was performed using an Incucyte live-cell imaging system (Essen BioScience) to assess apoptosis induction every 1 hour for 20-48 hours. The apoptosis in leukemic cells was measured by green and red overlap counts.
Rituximab is a chimeric anti-CD20 antibody that was used as a non-specific control antibody. NK cell-induced apoptosis was measured by annexin V binding assay using the Incucyte live-cell imaging system. […] Representative images of OCI-AML3 cells undergoing apoptosis at different time points in different treatment conditions are shown in FIG. 12A.

[2] = system: BC cell lines (MCF7 and HCC38); assay: NK cell-mediated ADCC in breast cancer cell lines; format: cell-based, human; conditions: 10 μg/mL
Source text: Rituximab is a chimeric anti-CD20 antibody that was used as a nonspecific control antibody.

**Q.** With rituximab [reference compound] as the substance, how does the “apoptosis of leukemic cells (NK cell ADCC)” value ([1]; 1, 5, and 10 μg/mL, with NK cells, 8:1 ratio) read?
**A.** did not show significant outcomes

**Q.** What about the “killing of leukemic cells, antibody alone, at 28 and 22 hours” value ([1]; antibody alone) of the same substance?
**A.** no effect on killing leukemic cells

**Q.** And the “apoptosis in BC cells (ADCC)” value ([2]; with NK cells, 15:1 NK-to-target cell ratio)?
**A.** did not show significant outcomes

**Q.** What about the “killing of BC cells, antibody alone, after 10 hours” value ([2]; without NK cells) of the same substance?
**A.** did not affect the killing of BC cells
